Values quoted from earlier work in paper PMC10051811, “Plasma and Cerebrospinal Fluid Concentrations of Micafungin Administered at High Doses in Critically Ill Infants with Systemic Candidiasis: A Pooled Analysis of Two Studies” (Pharmaceuticals, 2023).
*1 amine or outer side, *2 acyl side, *3 side chain or, on linkers, in order; H or OH if unused. Where a SMILES comes first, the peptide text is derived from it. Bridges are numbered along the chain shown (N, C = ends). [ ]: non-standard residue; d: D form. The star is where a group is joined. hTyr(3S-OH,4S-OH,3'-OSO3H) = N[C@H](C(=O)O)[C@H](O)[C@@H](O)c1ccc(O)c(OS(=O)(=O)O)c1; Orn(4R-OH,5R-OH) = O=C([C@H](C[C@@H](O)[C@@H](O)N[*:3])N[*:1])[*:2]; Pro(3S-OH,4S-Me) = C[C@H]1CN[C@H](C(=O)O)[C@H]1O; X1 = CCCCCOc1ccc(-c2cc(-c3ccc(C(=O)*)cc3)no2)cc1; Gln(3R-OH) = NC(=O)C[C@@H](O)[C@H](N)C(=O)O; Hyp = O=C(O)[C@@H]1C[C@@H](O)CN1

Legend:
rats = rats treated for 3 months or more, dose of 150 mg/day (eight times the highest recommended human dose); cited from earlier work
[1] = cited from earlier work
Excerpt: This mechanism of action explains their characteristics of high specificity, even against resistant species of Candida. Micafungin is primarily eliminated via biliary excretion (90%), while the route of elimination via the kidney appears to be of minor importance in humans. Micafungin is bound to plasma proteins up to 99.5%. The binding to plasma proteins seems to be a ...

## CCCCCOc1ccc(-c2cc(-c3ccc(C(=O)N[C@H]4C[C@@H](O)[C@@H](O)NC(=O)[C@@H]5[C@@H](O)[C@@H](C)CN5C(=O)[C@H]([C@H](O)CC(N)=O)NC(=O)[C@H]([C@H](O)[C@@H](O)c5ccc(O)c(OS(=O)(=O)O)c5)NC(=O)[C@@H]5C[C@@H](O)CN5C(=O)[C@H]([C@@H](C)O)NC4=O)cc3)no2)cc1 [micafungin] (X1-[Orn(4R-OH,5R-OH)]T[Hyp][hTyr(3S-OH,4S-OH,3'-OSO3H)][Gln(3R-OH)][Pro(3S-OH,4S-Me)]; lactam 1-C)
rats
  Hepatotoxicity finding in rats: development of hepatocellular tumors
[1]
  Bound to plasma proteins: up to 99.5%
[1]; humans
  Elimination via biliary excretion: 90%
